According to the NIST ThermoML archive (doi:10.1016/j.jct.2018.03.021):
Numbers after ± are expanded uncertainties.

Tests used:
[1] = xn = mol fraction of the nth substance listed; conditions: 100 kPa, Liquid, Vibrating tube method
[2] = molar heat capacity at constant pressure; xn = mol fraction of the nth substance listed; conditions: 100 kPa, Liquid, Extra sensitive DSC

Cc1ccc(C(C)C)cc1 [1-(1-methylethyl)-4-methylbenzene] + CCCO
Conditions	mass density, 298.15 K [kg/m3]	mass density, 308.15 K [kg/m3]	mass density, 318.15 K [kg/m3]	mass density, 328.15 K [kg/m3]	molar heat capacity at constant pressure, 298.8 K [J/K/mol]	molar heat capacity at constant pressure, 308.7 K [J/K/mol]	molar heat capacity at constant pressure, 318.6 K [J/K/mol]	molar heat capacity at constant pressure, 328.5 K [J/K/mol]
[1], x1 = 0.0499	804.92 ± 0.71	796.73 ± 0.71	788.38 ± 0.71	779.8 ± 0.71	–	–	–	–
[1], x1 = 0.1007	809.8 ± 0.71	801.54 ± 0.71	793.11 ± 0.71	784.46 ± 0.71	–	–	–	–
[1], x1 = 0.2029	818.12 ± 0.71	809.76 ± 0.71	801.22 ± 0.71	792.47 ± 0.71	–	–	–	–
[1], x1 = 0.3021	824.8 ± 0.71	816.37 ± 0.71	807.78 ± 0.71	798.98 ± 0.71	–	–	–	–
[1], x1 = 0.4032	830.42 ± 0.71	821.98 ± 0.71	813.38 ± 0.71	804.59 ± 0.71	–	–	–	–
[1], x1 = 0.5045	835.28 ± 0.71	826.83 ± 0.71	818.25 ± 0.71	809.51 ± 0.71	–	–	–	–
[1], x1 = 0.6044	839.47 ± 0.71	831.05 ± 0.71	822.51 ± 0.71	813.82 ± 0.71	–	–	–	–
[1], x1 = 0.6974	842.95 ± 0.71	834.57 ± 0.71	826.09 ± 0.71	817.49 ± 0.71	–	–	–	–
[1], x1 = 0.8035	846.57 ± 0.71	838.26 ± 0.71	829.87 ± 0.71	821.37 ± 0.71	–	–	–	–
[1], x1 = 0.8989	849.61 ± 0.71	841.39 ± 0.71	833.1 ± 0.71	824.75 ± 0.71	–	–	–	–
[1], x1 = 0.9508	851.22 ± 0.71	843.07 ± 0.71	834.88 ± 0.71	826.65 ± 0.71	–	–	–	–
[1], x1 = 1	852.99 ± 0.71	844.94 ± 0.71	836.86 ± 0.71	828.75 ± 0.71	–	–	–	–
[2], x1 = 0.0499	–	–	–	–	151.2 ± 5.9	158.5 ± 6.1	165.9 ± 6.4	173.4 ± 6.7
[2], x1 = 0.1007	–	–	–	–	159.6 ± 6.2	166.5 ± 6.5	173.5 ± 6.7	180.7 ± 7
[2], x1 = 0.2029	–	–	–	–	174.5 ± 6.8	182.2 ± 7.1	188.4 ± 7.3	195.4 ± 7.6
[2], x1 = 0.3021	–	–	–	–	186.9 ± 7.2	194 ± 7.5	201.2 ± 7.8	208.3 ± 8.1
[2], x1 = 0.4032	–	–	–	–	198.6 ± 7.7	206.1 ± 8	213.2 ± 8.3	220.7 ± 8.5
[2], x1 = 0.5045	–	–	–	–	210.6 ± 8.2	217.2 ± 8.4	223.9 ± 8.7	231.2 ± 9
[2], x1 = 0.6044	–	–	–	–	221 ± 8.6	227.2 ± 8.8	233.3 ± 9	240.2 ± 9.3
[2], x1 = 0.6974	–	–	–	–	229.1 ± 8.9	235 ± 9.1	240.8 ± 9.3	246.8 ± 9.6
[2], x1 = 0.8035	–	–	–	–	237.6 ± 9.2	242.8 ± 9.4	248.1 ± 9.6	253.4 ± 9.8
[2], x1 = 0.8989	–	–	–	–	242.2 ± 9.4	246.2 ± 9.5	250.4 ± 9.7	254.5 ± 9.9
[2], x1 = 0.9508	–	–	–	–	242.4 ± 9.4	245.3 ± 9.5	248.8 ± 9.6	252.6 ± 9.8
[2], x1 = 1	–	–	–	–	240.9 ± 9.3	244.8 ± 9.5	249.4 ± 9.7	254.6 ± 9.9
